Experimental data published in ChEMBL document CHEMBL1909046, “DrugMatrix in vitro pharmacology data”.

Legend:
[1] = target: D(3) dopamine receptor (Homo sapiens, UniProt P35462); assay: DRUGMATRIX: Dopamine D3 radioligand binding (ligand: [3H] Spiperone); type: cell membranes, CHO, Membrane; conditions: for Ki: read-out: Ki
[2] = target: T1, Androgen receptor (Rattus norvegicus, UniProt P15207); also: in other assays of this panel Not Active means under 50% inhibition at 10 µM
T1 sequence (P15207 whole entry): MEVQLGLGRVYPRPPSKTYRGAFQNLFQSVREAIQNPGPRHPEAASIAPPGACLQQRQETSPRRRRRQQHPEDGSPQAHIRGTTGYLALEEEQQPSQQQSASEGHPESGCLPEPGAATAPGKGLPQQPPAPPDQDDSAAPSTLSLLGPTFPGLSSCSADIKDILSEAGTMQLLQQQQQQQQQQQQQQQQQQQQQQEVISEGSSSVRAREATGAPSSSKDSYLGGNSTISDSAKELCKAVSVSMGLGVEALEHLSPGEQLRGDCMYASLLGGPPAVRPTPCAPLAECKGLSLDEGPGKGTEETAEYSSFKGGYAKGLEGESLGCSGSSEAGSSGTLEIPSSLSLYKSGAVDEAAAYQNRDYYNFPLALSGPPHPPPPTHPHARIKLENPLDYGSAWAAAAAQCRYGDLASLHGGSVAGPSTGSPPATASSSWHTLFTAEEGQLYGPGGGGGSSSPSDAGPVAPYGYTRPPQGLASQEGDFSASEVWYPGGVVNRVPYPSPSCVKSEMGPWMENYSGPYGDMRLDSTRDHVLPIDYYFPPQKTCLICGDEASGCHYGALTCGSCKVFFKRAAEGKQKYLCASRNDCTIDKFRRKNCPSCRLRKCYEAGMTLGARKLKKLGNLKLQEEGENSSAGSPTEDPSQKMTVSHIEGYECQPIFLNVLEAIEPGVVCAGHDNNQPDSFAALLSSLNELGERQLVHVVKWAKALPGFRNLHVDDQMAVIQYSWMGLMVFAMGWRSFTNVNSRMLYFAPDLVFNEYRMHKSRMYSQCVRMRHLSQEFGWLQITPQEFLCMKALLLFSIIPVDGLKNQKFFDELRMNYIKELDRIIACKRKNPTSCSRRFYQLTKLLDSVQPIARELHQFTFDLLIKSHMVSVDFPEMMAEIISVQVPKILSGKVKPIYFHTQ

Sequence of D(3) dopamine receptor (P35462 whole entry): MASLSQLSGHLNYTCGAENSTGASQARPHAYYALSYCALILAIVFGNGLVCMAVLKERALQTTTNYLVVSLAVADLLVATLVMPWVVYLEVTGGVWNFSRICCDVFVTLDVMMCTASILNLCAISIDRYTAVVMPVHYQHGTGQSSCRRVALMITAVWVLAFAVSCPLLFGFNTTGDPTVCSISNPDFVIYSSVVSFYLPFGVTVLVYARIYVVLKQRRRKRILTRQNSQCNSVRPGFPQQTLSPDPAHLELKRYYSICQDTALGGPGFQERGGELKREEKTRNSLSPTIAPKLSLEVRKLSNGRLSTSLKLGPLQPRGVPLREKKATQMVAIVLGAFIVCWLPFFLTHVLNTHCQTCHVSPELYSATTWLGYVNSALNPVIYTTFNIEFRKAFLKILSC

COc1cc(/C=C/C(=O)O)ccc1O [FERULATE]
IC50 ([1]; cho): Not Active
IC50 [2]: Not Active

CC(C)(C#N)c1cc(Cn2cncn2)cc(C(C)(C)C#N)c1 [ANASTROZOLE]
IC50 ([1]; cho): Not Active

COc1ccc(Cl)cc1C(=O)NCCc1ccc(S(=O)(=O)NC(=O)NC2CCCCC2)cc1 [GLYBURIDE]
IC50 ([1]; cho): Not Active

CC(C)NCC(O)COc1ccc(CC(N)=O)cc1 (configuration not stated) [ATENOLOL]
IC50 ([1]; cho): Not Active

O=C(O)COC(=O)Cc1ccccc1Nc1c(Cl)cccc1Cl [ACECLOFENAC]
IC50 ([1]; cho): Not Active
IC50 [2]: Not Active

Cl.NC[C@H]1CC[C@H](C(=O)Oc2ccc(CCC(=O)O)cc2)CC1 [CETRAXATE HYDROCHLORIDE]
IC50 ([1]; cho): Not Active

CC(=O)[C@]1(O)Cc2c(O)c3c(c(O)c2[C@@H](O[C@H]2C[C@H](N)[C@H](O)[C@H](C)O2)C1)C(=O)c1ccccc1C3=O [IDARUBICIN]
IC50 ([1]; cho): Not Active
IC50 [2]: Not Active

C[C@@H]1[C@H](O)[C@@H](C)/C=C/C=C/C=C/C=C/C=C/C=C/C=C/[C@H](O[C@@H]2O[C@H](C)[C@@H](O)[C@H](N)[C@@H]2O)C[C@@H]2O[C@](O)(C[C@@H](O)C[C@@H](O)[C@H](O)CC[C@@H](O)C[C@@H](O)CC(=O)O[C@H]1C)C[C@H](O)[C@H]2C(=O)O [AMPHOTERICIN B]
IC50 ([1]; cho): Not Active

O=C(O)c1ccccc1 [BENZOIC ACID]
IC50 ([1]; cho): Not Active

C[C@]12CC[C@@H](O)C[C@@H]1CC[C@@H]1[C@@H]2CC[C@]2(C)C(=O)CC[C@@H]12 [ANDROSTERONE]
IC50 ([1]; cho): Not Active
IC50 [2]: Not Active

NCC(CC(=O)O)c1ccc(Cl)cc1 (configuration not stated) [BACLOFEN]
IC50 ([1]; cho): Not Active

O=C(O)CO [GLYCOLIC ACID]
IC50 ([1]; cho): Not Active

COc1ccccc1OCCNCC(O)COc1cccc2[nH]c3ccccc3c12 (configuration not stated) [CARVEDILOL]
IC50 ([1]; read-out: IC50): 577 nM
Ki [1]: 196 nM
IC50 [2]: Not Active

O=C(NCCN1CCOCC1)c1ccc(Cl)cc1 [MOCLOBEMIDE]
IC50 ([1]; cho): Not Active

C=CCO [ALLYL ALCOHOL]
IC50 ([1]; cho): Not Active

CC(C)Cc1ccc([C@H](C)C(=O)O)cc1 [DEXIBUPROFEN]
IC50 ([1]; cho): Not Active

O=c1[nH]cnc2c1ncn2[C@H]1CC[C@@H](CO)O1 [DIDANOSINE]
IC50 ([1]; cho): Not Active

CC1(COc2ccc(CC3SC(=O)NC3=O)cc2)CCCCC1 (configuration not stated) [CIGLITAZONE]
IC50 ([1]; read-out: IC50): 26700 nM
Ki [1]: 9070 nM

C[C@H](C(=O)O)c1ccc2oc(-c3ccc(F)cc3)nc2c1 [FLUNOXAPROFEN]
IC50 ([1]; cho): Not Active
IC50 [2]: Not Active

CC(C)Cn1cnc2c(N)nc3ccccc3c21 [IMIQUIMOD]
IC50 ([1]; cho): Not Active
IC50 [2]: Not Active

C#C[C@]1(O)CC[C@H]2[C@@H]3CCC4=CC(=O)CC[C@@H]4[C@H]3CC[C@@]21C [NORETHINDRONE]
IC50 ([1]; cho): Not Active

Oc1ncnc2[nH]ncc12 [ALLOPURINOL]
IC50 ([1]; cho): Not Active

CCC1(c2ccccc2)C(=O)NC(=O)NC1=O [PHENOBARBITAL]
IC50 ([1]; cho): Not Active

O=C(O)CCc1nc(-c2ccccc2)c(-c2ccccc2)o1 [OXAPROZIN]
IC50 ([1]; cho): Not Active

CCN1C[C@]2(COC)[C@H](O)C[C@H](OC)[C@@]34[C@@H]5C[C@@]6(O)[C@H](OC(=O)c7ccccc7)[C@@H]5[C@@](OC(C)=O)([C@@H]([C@H](OC)[C@H]23)[C@@H]14)[C@@H](O)[C@@H]6OC [ACONITINE]
IC50 ([1]; cho): Not Active

Oc1ccccc1 [PHENOL]
IC50 ([1]; cho): Not Active

Nc1nc(F)nc2c1ncn2[C@@H]1O[C@H](CO)[C@@H](O)[C@@H]1O [FLUDARABINE]
IC50 ([1]; cho): Not Active

O=C1CN(/N=C/c2ccc([N+](=O)[O-])o2)C(=O)N1 [NITROFURANTOIN]
IC50 ([1]; cho): Not Active

CC12CCC(CC1=O)C2(C)C (configuration not stated) [CAMPHOR]
IC50 ([1]; cho): Not Active

Nc1nc(N)c2nc(CNc3ccc(C(=O)N[C@@H](CCC(=O)O)C(=O)O)cc3)cnc2n1 [AMINOPTERIN]
IC50 ([1]; cho): Not Active

Cc1c(N)nc([C@H](CC(N)=O)NC[C@H](N)C(N)=O)nc1C(=O)N[C@H](C(=O)N[C@H](C)[C@@H](O)[C@H](C)C(=O)N[C@H](C(=O)NCCc1nc(-c2nc(C(=O)NCCC[S+](C)C)cs2)cs1)[C@@H](C)O)[C@@H](O[C@@H]1O[C@@H](CO)[C@@H](O)[C@H](O)[C@@H]1O[C@H]1O[C@H](CO)[C@@H](O)[C@H](OC(N)=O)[C@@H]1O)c1c[nH]cn1.[Br-] [BLEOMYCIN A2]
IC50 ([1]; cho): Not Active

OC[C@H]1O[C@@H]2O[C@H]3[C@H](O)[C@@H](O)[C@@H](O[C@H]4[C@H](O)[C@@H](O)[C@@H](O[C@H]5[C@H](O)[C@@H](O)[C@@H](O[C@H]6[C@H](O)[C@@H](O)[C@@H](O[C@H]7[C@H](O)[C@@H](O)[C@@H](O[C@H]1[C@H](O)[C@H]2O)O[C@@H]7CO)O[C@@H]6CO)O[C@@H]5CO)O[C@@H]4CO)O[C@@H]3CO [ALFADEX]
IC50 ([1]; cho): Not Active

O=C(Nc1ccc(Cl)c(Cl)c1)c1cc(Cl)cc(Cl)c1O [3,3',4',5-TETRACHLOROSALICYLANILIDE]
IC50 ([1]; cho): Not Active

COC(=O)Nc1nc2ccc(Sc3ccccc3)cc2[nH]1 [FENBENDAZOLE]
IC50 ([1]; cho): Not Active

COc1cc(NC(C)CCCN)c2ncccc2c1 (configuration not stated) [PRIMAQUINE]
IC50 ([1]; cho): Not Active

OC[C@H]1O[C@@H]2O[C@H]3[C@H](O)[C@@H](O)[C@@H](O[C@H]4[C@H](O)[C@@H](O)[C@@H](O[C@H]5[C@H](O)[C@@H](O)[C@@H](O[C@H]6[C@H](O)[C@@H](O)[C@@H](O[C@H]7[C@H](O)[C@@H](O)[C@@H](O[C@H]8[C@H](O)[C@@H](O)[C@@H](O[C@H]1[C@H](O)[C@H]2O)O[C@@H]8CO)O[C@@H]7CO)O[C@@H]6CO)O[C@@H]5CO)O[C@@H]4CO)O[C@@H]3CO [BETADEX]
IC50 ([1]; cho): Not Active

C[C@H]1C[C@H]2[C@@H]3CCC4=CC(=O)C=C[C@]4(C)[C@@]3(F)[C@@H](O)C[C@]2(C)[C@@]1(O)C(=O)CO [BETAMETHASONE]
IC50 ([1]; cho): Not Active

NC(=O)CN1CCCC1=O
IC50 ([1]; cho): Not Active

CNC[C@H](O)c1ccc(O)c(O)c1 [EPINEPHRINE]
IC50 ([1]; cho): Not Active

ClC1=C(Cl)[C@]2(Cl)[C@@H]3[C@@H]4C[C@@H]([C@H]5O[C@@H]45)[C@@H]3[C@@]1(Cl)C2(Cl)Cl [DIELDRIN]
IC50 ([1]; cho): Not Active

CCN1CCN(C(=O)N[C@@H](C(=O)N[C@@H]2C(=O)N3[C@@H]2SC(C)(C)[C@@H]3C(=O)O)c2ccccc2)C(=O)C1=O [PIPERACILLIN]
IC50 ([1]; cho): Not Active

NC(=O)NC(=O)Cc1ccccc1 [PHENACEMIDE]
IC50 ([1]; cho): Not Active

CC(CN1c2ccccc2Sc2ccccc21)N(C)C (configuration not stated) [PROMETHAZINE]
IC50 ([1]; read-out: IC50): 559 nM
Ki [1]: 190 nM

Nc1ccc(Cc2ccc(N)cc2)cc1
IC50 ([1]; cho): Not Active

CC[C@H]1OC(=O)[C@H](C)[C@@H](O[C@H]2C[C@@](C)(OC)[C@@H](O)[C@H](C)O2)[C@H](C)[C@@H](O[C@@H]2O[C@H](C)C[C@H](N(C)C)[C@H]2O)[C@](C)(O)C[C@@H](C)C(=O)[C@H](C)[C@@H](O)[C@]1(C)O [ERYTHROMYCIN]
IC50 ([1]; cho): Not Active

Clc1cc(Cl)c(OCC#CI)cc1Cl [HALOPROGIN]
IC50 ([1]; read-out: IC50): 488 nM
Ki [1]: 166 nM

CCN(CCO)CCCC(C)Nc1ccnc2cc(Cl)ccc12 (configuration not stated) [HYDROXYCHLOROQUINE]
IC50 ([1]; cho): Not Active

O=C1c2ccccc2C(=O)C1c1ccccc1 [PHENINDIONE]
IC50 ([1]; cho): Not Active

NC(N)=Nc1nc(CSCCC(N)=NS(N)(=O)=O)cs1 [FAMOTIDINE]
IC50 ([1]; cho): Not Active

Cc1ccnc2c1NC(=O)c1cccnc1N2C1CC1 [NEVIRAPINE]
IC50 ([1]; cho): Not Active

CO[C@H]1O[C@@H]2O[C@@]3(C)CC[C@H]4[C@H](C)CC[C@@H]([C@H]1C)[C@@]24OO3
IC50 ([1]; cho): Not Active

c1ccc2sc(SSc3nc4ccccc4s3)nc2c1 [BENZOTHIAZYL DISULFIDE]
IC50 ([1]; read-out: IC50): 851 nM
Ki [1]: 289 nM

NS(=O)(=O)c1cc(C(=O)O)c(NCc2ccco2)cc1Cl [FUROSEMIDE]
IC50 ([1]; cho): Not Active

COc1ccc(C[C@H](N)C(=O)N[C@H]2[C@@H](O)[C@H](n3cnc4c(N(C)C)ncnc43)O[C@@H]2CO)cc1 [PUROMYCIN]
IC50 ([1]; cho): Not Active

CC12CCC(CC1)C(C)(C)O2 [EUCALYPTOL]
IC50 ([1]; cho): Not Active
